Series [1] has as its target T1, RFT-1 (rft-1, Y47D7A.16) (Caenorhabditis elegans, UniProt Q3LFN0).
T1 construct: full-length 1,284 nt cDNA with corrected 3' end (differs from the older gene model) in pCI-neo; untagged; transient expression in human ARPE-19 cells; 11 predicted TM domains
T1 sequence (Q3LFN0 1-427): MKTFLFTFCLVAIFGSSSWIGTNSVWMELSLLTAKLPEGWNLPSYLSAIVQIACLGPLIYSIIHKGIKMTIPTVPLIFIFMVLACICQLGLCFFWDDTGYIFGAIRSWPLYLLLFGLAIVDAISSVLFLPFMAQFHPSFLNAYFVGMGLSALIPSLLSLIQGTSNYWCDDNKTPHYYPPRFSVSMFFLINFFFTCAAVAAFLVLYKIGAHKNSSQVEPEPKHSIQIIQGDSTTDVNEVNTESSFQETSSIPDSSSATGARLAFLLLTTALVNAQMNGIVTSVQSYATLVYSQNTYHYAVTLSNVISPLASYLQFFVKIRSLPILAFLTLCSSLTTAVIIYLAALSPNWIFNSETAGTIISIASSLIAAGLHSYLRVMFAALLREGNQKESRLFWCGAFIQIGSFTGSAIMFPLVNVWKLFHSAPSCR
As to the kind of experiment: inhibition of [3H]riboflavin uptake, transfected ARPE-19 cells, empty-vector uptake subtracted. The format is cell-based. Conditions: competition with [3H]riboflavin; 37°C, 5 min, Krebs-Ringer buffer.

The target of series [2] is T2, RFT-2 (rft-2, Y47D7A.14) (Caenorhabditis elegans, UniProt G4SDH4).
T2 construct: full-length cDNA in pCI-neo; untagged; transient expression in human ARPE-19 cells
T2 sequence (G4SDH4 1-476): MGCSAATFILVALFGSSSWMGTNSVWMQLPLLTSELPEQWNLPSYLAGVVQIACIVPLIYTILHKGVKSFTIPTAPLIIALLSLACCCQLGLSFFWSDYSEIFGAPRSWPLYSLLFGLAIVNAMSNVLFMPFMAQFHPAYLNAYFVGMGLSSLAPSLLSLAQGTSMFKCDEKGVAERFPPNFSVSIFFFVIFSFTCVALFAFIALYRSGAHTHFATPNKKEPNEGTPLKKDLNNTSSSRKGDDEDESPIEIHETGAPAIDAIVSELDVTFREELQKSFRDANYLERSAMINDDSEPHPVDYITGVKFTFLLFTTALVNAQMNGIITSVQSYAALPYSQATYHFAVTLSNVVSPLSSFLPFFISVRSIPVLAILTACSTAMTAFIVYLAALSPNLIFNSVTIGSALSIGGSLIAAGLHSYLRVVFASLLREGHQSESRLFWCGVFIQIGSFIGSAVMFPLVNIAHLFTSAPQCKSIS
The series can be described thus: [3H]riboflavin uptake, transfected ARPE-19 cells, empty-vector uptake subtracted. Particulars: 14 nM [3H]riboflavin, pH 5.5, 37°C, 5 min, Krebs-Ringer buffer; labelled compound.

Substrate in series [3]: Cc1cc2nc3c(=O)[nH]c(=O)nc-3n(C[C@H](O)[C@H](O)[C@H](O)CO)c2cc1C
As to the kind of experiment: cells, lysate or membranes. Conditions: 0.01–10 µM riboflavin, 37°C, 5 min, Krebs-Ringer buffer, labelled compound.

As for `Cc1cc2nc3[nH]c(=O)[nH]c(=O)c3nc2cc1C` [lumichrome], the “inhibition of [3H]riboflavin uptake, transfected ARPE-19 cells, empty-vector upt” value in series [1] was “structural analogues lumichrome and lumiflavin significantly inhibited [^3H] riboflavin uptake”.

Take `Cc1cc2nc3c(=O)[nH]c(=O)nc-3n(C)c2cc1C` [lumiflavin]: the “inhibition of [3H]riboflavin uptake, transfected ARPE-19 cells, empty-vector upt” value in series [1] was “structural analogues lumichrome and lumiflavin significantly inhibited [^3H] riboflavin uptake”.

As for `Cc1cc2nc3c(=O)[nH]c(=O)nc-3n(C[C@H](O)[C@H](O)[C@H](O)CO)c2cc1C` [riboflavin], the “[3H]riboflavin uptake, transfected ARPE-19 cells, empty-vector uptake subtracted” value in series [2] is reported as “rft-2 transfected cells also had significantly higher riboflavin uptake compared to controls”.

B1: RFT-1 (rft-1, Y47D7A.16) (Caenorhabditis elegans) (protein)
chain: MKTFLFTFCLVAIFGSSSWIGTNSVWMELSLLTAKLPEGWNLPSYLSAIVQIACLGPLIYSIIHKGIKMTIPTVPLIFIFMVLACICQLGLCFFWDDTGYIFGAIRSWPLYLLLFGLAIVDAISSVLFLPFMAQFHPSFLNAYFVGMGLSALIPSLLSLIQGTSNYWCDDNKTPHYYPPRFSVSMFFLINFFFTCAAVAAFLVLYKIGAHKNSSQVEPEPKHSIQIIQGDSTTDVNEVNTESSFQETSSIPDSSSATGARLAFLLLTTALVNAQMNGIVTSVQSYATLVYSQNTYHYAVTLSNVISPLASYLQFFVKIRSLPILAFLTLCSSLTTAVIIYLAALSPNWIFNSETAGTIISIASSLIAAGLHSYLRVMFAALLREGNQKESRLFWCGAFIQIGSFTGSAIMFPLVNVWKLFHSAPSCR
As for B1, the Michaelis-Menten constant (Km) (commonly the substrate concentration at which the rate is half of its maximum) in series [3] was 1.4 ± 0.5 µM.

For the origin of these results see article PMC3590142 (PLoS ONE, 2013).
